Data as given in US8586300B2, “Genetic polymorphisms and infertility” (The University of North Carolina at Chapel Hill, priority 2008, dated 2013).

Experiments:
sperm [1] = experiment: Sperm motility (progressively motile sperm, hemocytometer) after betaine supplementation via drinking water; type: in vivo, mouse
Procedure: (§1) FIGS. 17A-17D are bar graphs showing the results of betaine supplementation on sperm concentration, motility and mitochondrial function in CHDH+/+ (WT), CHDH+/−, and CHDH−/− (KO) mice. […] Spermatozoa concentration was determined by counting cells using a hemocytometer. Results are presented as mean±SEM, n=9-11 animals per genotype. […] Motility assays were performed by counting the number of progressively motile sperm per total number of sperm in 5 squares of a hemocytometer. The results are presented as the mean % motility±SEM, p<0.001, n=8-9 animals per genotype. […] Absorbance values were normalized to the number of sperm assayed. All assays were performed in duplicate. The value for each animal is the mean of 4 assays (2 cauda epididymii, each assayed in duplicate per animal). Results are presented as the mean±SEM, p<0.05, n=5 animals/group. […] The number of cells that fluoresced red was counted in 5 random fields of vision for each sample and results are expressed as a percent of the total cells in those fields. Results are presented as mean±SEM, p<0.001, n=5 animals/group.
Eight to 10 week old CHDH^+/+ and CHDH^−/− male mice were anesthetized with Halothane (Henry Schein, Inc.). A V-shaped incision was made beginning at the penis and extending out to the midline of the body. Testis and epididymis were excised from the animal and immediately placed in a 6-well tissue culture dish containing approximately 1 ml of M16 media (Sigma) in a well. All media, plates and tubes used were warmed to 37° C. prior to the dissection. Any plate or tube containing sperm, once isolated, was kept at 37° C. with 5% CO2 for the duration of the experiment. The cauda epididymis was separated from the other structures and then placed in a 24-well plate containing 300 μl of fresh M16 media in each well. The cauda epididymis was then cut several times and the dish was incubated at 37° C. with 5% CO2 for 15 minutes. Sperm concentration was determined by counting cells with a hemocytometer. Percent motility was determined by counting the number of progressively motile sperm per total number of sperm present using a hemocytometer. “Progressively motile sperm” refers to sperm that swim forward in a somewhat straight line. Sperm that were moving, but that were swimming in circles were classified as non-progressively motile.
To determine whether sperm motility can be restored through betaine supplementation, CHDH−/− mice were given drinking water supplemented to 2% betaine for 38 days.

sperm [2] = experiment: Sperm concentration (hemocytometer) after betaine supplementation; type: in vivo, mouse
Procedure: as §1, with “Results are presented as mean±SEM, p<0.001, n=5 animals/group.” left out
Eight to 10 week old CHDH^+/+ and CHDH^−/− male mice were anesthetized with Halothane (Henry Schein, Inc.). […] Sperm concentration was determined by counting cells with a hemocytometer. Percent motility was determined by counting the number of progressively motile sperm per total number of sperm present using a hemocytometer. […]

spermatozoa mitochondria [3] = experiment: MTT assay of mitochondrial function in sperm after betaine supplementation; type: in vivo, mouse
Procedure: as §1
Sperm were isolated from the cauda epididymis as described above. An MTT (3-(4,5-dimethyl thiazol-2-yl)-2,5-diphenyl tetrazolium bromide) assay was conducted to measure mitochondrial function (Nasr-Esfahani, Aboutorabi et al. 2002) with the following modification: rather then visualizing positive MTT staining microscopically, MTT assays were conducted using a commercially available MIT assay kit (CellTiter 96 Non-radioactive Cell Proliferation Assay, Promega, Madison, Wis., United States of America) and cells were solubolized with the provided Solubolization/Stop Mix. 100 μL of isolated sperm were incubated in F10 media (Invitrogen Inc., Carlsbad, Calif., United States of America) in a 96-well plate with 15 μL of MTT solution at 37° C./5% CO2 for 2 hours. Following solubolization, the absorbance of each sample was read at a wavelength of 562 nm using a BIOTEK® plate reader (BioTek Instruments Inc., Winooski, Vt., United States of America). Absorbance was normalized to the number of sperm assayed.

spermatozoa mitochondria [4] = experiment: JC-1 staining, mitochondrial membrane potential in sperm after betaine supplementation; type: in vivo, mouse; settings: JC-1 staining of sperm
Procedure: as §1, with “animal).” for “animal). Results are presented as the mean±SEM, p<0.05, n=5 animals/group.”, “Results are presented as mean±SEM, p<0.001, n=5 animals/group.” left out
To detect changes in mitochondrial membrane polarization, JC-1 staining was performed on sperm harvested from cauda epididymis (see FIGS. 8-11 and 13). […] 20 μl of each stained sample was examined with a fluorescence microscope (Olympus BX50, Olympus America, Inc., Center Valley, Pa., United States of America) and large band epifluorescence filters. […] Five fields of vision were counted for each sample and results expressed as percent of total cells.

[5] = humans, dietary supplementation; cited from earlier work
[6] = test system: isolated rat hepatic mitochondria; settings: inhibition of electron transport chain Complex I (rotenone) or Complex II (malonate); cited from earlier work

With `C[N+](C)(C)CC(=O)O` [betaine] as the compound, how does the “effect on motility of spermatozoa” value (sperm [1]; CHDH+/+ or CHDH+/- spermatozoa, betaine via drinking water for 42 days) read?
Its value is “nor was there any effect”.

What about the sperm motility (sperm [1]; CHDH+/- mice, betaine supplementation) of the same compound?
Its sperm motility is “unaffected”.

What about the asthenospermic phenotype (sperm [1]; CHDH-/- males, betaine via drinking water for 42 days) of the same compound?
The asthenospermic phenotype was “improved, but not fully rescued”.

What about the progressive sperm motility (sperm [1]; CHDH-/- mice, drinking water supplemented to 2% betaine for 38 days) of the same compound?
The progressive sperm motility was “approximately 30%”.

What about the “effect on sperm concentration” value (sperm [2]; CHDH+/+, CHDH+/- or CHDH-/- mice, betaine supplementation) of the same compound?
Its value is “did not have any effect”.

What about the “number of sperm produced” value (sperm [2]; males of any CHDH genotype, betaine via drinking water for 42 days) of the same compound?
The value was “did not alter”.

What about the “decrease of MTT conversion” value (spermatozoa mitochondria [3]; CHDH+/+ sperm, betaine supplementation) of the same compound?
The value was 67%.

And the “MTT conversion compared to untreated CHDH+/+ sperm” value (spermatozoa mitochondria [3]; CHDH+/+ spermatozoa, betaine via drinking water for 42 days)?
Its value is “significantly decreased”.

And the “amount of MTT reduction” value (spermatozoa mitochondria [3]; CHDH+/- or CHDH-/- spermatozoa, betaine supplementation)?
Its value is “did not change”.

What about the “changes in mitochondrial function, as measured by MTT assay and JC-1 staining” value (spermatozoa mitochondria [3]; betaine via drinking water for 42 days, exception CHDH+/+ MTT conversion) of the same compound?
The value was “No changes”.

What about the “effect on inner mitochondrial membrane potential (ΔΨm)” value (spermatozoa mitochondria [4]) of the same compound?
Its value is “no effect”.

What about the “plasma tHcy concentrations” value [5] of the same compound?
The value was “effective in lowering”.

For `O=C(O)CC(=O)O` [malonate], which choline-stimulated mitochondrial respiration [6] is on record?
The choline-stimulated mitochondrial respiration was “decreases”.

Which choline-stimulated mitochondrial respiration [6] does the source give for `C=C(C)[C@H]1Cc2c(ccc3c2O[C@@H]2COc4cc(OC)c(OC)cc4[C@@H]2C3=O)O1` [rotenone] here?
The choline-stimulated mitochondrial respiration was “decreases”.
